Results as given in patent US8012985B2, “Compounds with antiparasitic activity and medicines containing same” (Centre National de la Recherche Scientifique (C.N.R.S.), priority 2002, dated 2011).
Where a name gives a salt, the structure may show the parent alone. Read-outs that look alike come from different tables or passages of the source. Marks after values point to notes of the source that are not given here.

Columns and labels:
P. falciparum = test: Antimalarial activity in vitro against P. falciparum (Desjardins test, [3H] hypoxanthine incorporation); assay type: cell-based; details: growth in vitro of P. falciparum
From the text: FIG. 1 represents the antimalarial activity of compound 6.0 as a function of the drug concentration, according to Desjardins' test, (Desjardins R. E. et al., Antimicrob. Agents Chemother. 1979, 16, 710-718).
(§1) A. Antimalarial Activity In Vitro Against P. Falciparum and In Vivo in Mice Infected with P. Vinckei
(§2) Tables 4 and 5 hereafter show the results of the IC50 values in μM and of ED50 (mg/kg) obtained with compounds of the invention.
(§3) The IC50 is the concentration which inhibits 50% of the growth in vitro of P. falciparum (the IC50 measurements were determined according to the method of Desjardins in which the incorporation of [^3H] hypoxanthine in the nucleic acids serves as a cell viability index) (FIG. 1), the ED50 is the effective dose for inhibiting 50% of the growth in vivo of P. vinckei according to a 4-day suppression test.

P. vinckei = test: Antimalarial activity in vivo in mice infected with P. vinckei, 4-day suppression test; details: for ED50: Plasmodium vinckei, 96 h
Procedure: as §1, §2, §3
TI corresponds to the therapeutic index, TI=LD50 (semi chronic)/ED50; ip: intraperitoneal administration; po: per os.

Babesia divergens = test: Antibabesia activity in vitro against Babesia divergens; assay type: cell-based
Procedure: (§4) The products 6.0, 22.0, and 2.0 were also evaluated in vitro for their activities against Babesia divergens and B. canis.

B. canis = test: Antibabesia activity in vitro against B. canis; assay type: cell-based
Procedure: as §4

[1] = set-up: species or system mice; details: mouse, in vivo
Procedure: The results are given hereafter of the pharmacokinetic parameters after administration by intra-peritoneal or oral route in mice for compound 6.0.
For determination of the serum level, bio-tests were used ex vivo: briefly, the medicament is administered to the animal, then blood samples are repeatedly taken. The sera are decomplemented for 30 minutes at 56° C. The active metabolite content is then determined by incubation of different concentrations (dichotomous dilution) of each serum, in the presence of suspensions of erythrocytes infected with P. falciparum, according to the method of DESJARDINS with [^3H] hypoxanthine.
The results are expressed in IS50, which corresponds to the percentage of serum (containing an active metabolite) capable of inhibiting 50% of the growth of P. falciparum.
This value is then converted into serum concentration (usually expressed in ng/ml), by testing the active compound directly (without passing via the animal), on the same suspension infected with P. falciparum and by determining its IC50 value (in ng/ml) [serum count ═IC50] (in ng/ml)×100/SI50 (in %)].
The results are expressed in log (serum count of medicaments), as a function of time, which allows the evaluation of the half-time for the distribution to the serum compartment t1/2(d); the half-time for the elimination of the serum compartment (t1/2(e)); of C0, corresponding to the serum count extrapolated to the origin in the elimination phase; of AUC (which indicates the quantity of drug circulating in the bloodstream); and the relative bio-availability in the administration method by oral route, versus the method by intraperitoneal route [AUC (po)/AUC (ip)] which signifies the degree of absorption by oral route.

[2] = ip, tested after 2 administrations of the compound per day for 4 days
[3] = po, tested after 2 administrations of the compound per day for 4 days

Question: Which results are given for “1,12-bis(N,N′-methoxyacetamidinyl)dodecane [Compound 20.2]”?
Answer: IC50 (P. falciparum): 4.35 µM; ED50 (mg/Kg) P. vinckei (P. vinckei; ip, 4-day suppression test): ip = 10 mg/Kg; ED50 (mg/Kg) P. vinckei (P. vinckei; po, 4-day suppression test): po = 110 mg/Kg

Question: With “1,12-bis[N,N′-(benzyloxycarbonyl)amidinyl]dodecane [Compound 1.5]” as the compound, how does the IC50 (P. falciparum) read?
Answer: 0.4 µM

Question: With “1,12-bis[N,N′-(isobutyloxycarbonyl)amidinyl]dodecane [Compound 1.4]” as the compound, how does the IC50 (P. falciparum) read?
Answer: 0.5 µM

Question: For `CC1(C)CN=C(NCCCCCCCCCCCCNC2=NCCC2)NC1` [25.0, 2 TFA], which IC50 (P. falciparum) is on record?
Answer: 0.0019 µM

Question: Which IC50 (P. falciparum) does the source give for `CCOC(=O)NC(=N)CCCCCCCCCCCCC(=N)NC(=O)OCC` [Compound 1.2, 1,12-bis[N,N′-(ethyloxycarbonyl)amidinyl]dodecane] here?
Answer: 0.3 µM

Question: What about the “ED50 (mg/Kg) P. vinckei” value (P. vinckei; ip, 4-day suppression test) of the same compound?
Answer: ip 33 mg/Kg

Question: What does the source list for `NC(CCCCCCCCCCCCC(N)=NO)=NO` [Compound 1.15, 1,12-bis(N,N′-hydroxyamidinyl)dodecane]?
Answer: IC50 (P. falciparum): 3.5 µM; ED50 (mg/Kg) P. vinckei (P. vinckei; po, 4-day suppression test): po = 120 mg/Kg

Question: Which IC50 (P. falciparum) does the source give for `CON=C(N)CCCCCCCCCCCCC(N)=NOC` [Compound 1.16, 1,12-bis(N,N′-methoxyamidinyl)dodecane] here?
Answer: 6.8 µM

Question: With `CCOC(=O)ON=C(N)CCCCCCCCCCCCC(N)=NOC(=O)OCC` [Compound 1.17, 1,12-bis(N,N′-ethoxycarbonyloxyamidinyl)dodecane] as the compound, how does the IC50 (P. falciparum) read?
Answer: 1.2 µM

Question: For `COC(=O)ON=C(N)CCCCCCCCCCCCC(N)=NOC(=O)OC` [Compound 1.18, 1,12-bis(N,N′-methoxycarbonyloxyamidinyl)dodecane], which IC50 (P. falciparum) is on record?
Answer: 1.1 µM

Question: Which IC50 (P. falciparum) does the source give for `NC(CCCCCCCCCCCCC(N)=NOC(=O)Oc1ccccc1)=NOC(=O)Oc1ccccc1` [Compound 1.19, 1,12-bis(N,N′-phenoxycarbonyloxyamidinyl)dodecane] here?
Answer: 3.6 µM

Question: Which IC50 (P. falciparum) does the source give for `CC(=O)ON=C(N)CCCCCCCCCCCCC(N)=NOC(C)=O` [Compound 1.22, 1,12-bis(N,N′-acetoxyamidinyl)dodecane] here?
Answer: 1.4 µM

Question: For `NC(CCCCCCCCCCCCC(N)=NOC(=O)c1ccccc1)=NOC(=O)c1ccccc1` [Compound 1.23, 1,12-bis(N,N′-benzoyloxyamidinyl)dodecane], which IC50 (P. falciparum) is on record?
Answer: 1.1 µM

Question: Which results are given for `CCNC(=O)ON=C(N)CCCCCCCCCCCCC(N)=NOC(=O)NCC` [Compound 1.24, 1,12-bis(N,N′-ethylcarbamoyloxyamidinyl)dodecane]?
Answer: IC50 (P. falciparum): 0.2 µM; ED50 (mg/Kg) P. vinckei (P. vinckei; po, 4-day suppression test): po = 90 mg/Kg

Question: Which IC50 (P. falciparum) does the source give for `O=c1[nH]c(CCCCCCCCCCCCc2noc(=O)[nH]2)no1` [Compound 1.27, 1,12-bis[(1.2,4-oxadiazol-5(4H)-one)-3-yl]dodecane] here?
Answer: 9.2 µM

Question: For `O=S1NC(CCCCCCCCCCCCC2=NOS(=O)N2)=NO1` (stereo not drawn) [Compound 1.28, 1,12-bis[(1.2,3,5-oxathiadiazol-2(3H)-oxide)-4-yl]dodecane], which IC50 (P. falciparum) is on record?
Answer: 0.2 µM

Question: With `O=c1[nH]c(CCCCCCCCCCCCc2nsc(=O)[nH]2)ns1` [Compound 1.30, 1,12-bis[(1.2,4-thiadiazol-5(4H)-one)-3-yl]dodecane] as the compound, how does the IC50 (P. falciparum) read?
Answer: 0.02 µM

Question: What about the “ED50 (mg/Kg) P. vinckei” value (P. vinckei; ip, 4-day suppression test) of the same compound?
Answer: ip = 20 mg/Kg

Question: What does the source list for `N=C(CCCCCCCCCCCCC(=N)N1CCCC1)N1CCCC1` [Compound 2.0, 2 HCl, 1,14-di(pyrrolidin-1-yl)tetradecane-1,14-diimine]?
Answer: IC50 (Babesia divergens): < 0.05 µM; IC50 (B. canis): < 0.05 µM

Question: With `N=C(CCCCCCCCCCCCC(=N)N1CCCCC1)N1CCCCC1` [Compound 3.0, 1,14-di(piperidin-1-yl)tetradecane-1,14-diimine] as the compound, how does the IC50 (P. falciparum; Plasmodium falciparum) read?
Answer: 0.0049 µM

Question: What does the source list for `C(CCCCCCC1=NCCN1)CCCCCC1=NCCN1` [Compound 6.0, 1,12-bis(imidazolin-2-yl)dodecane]?
Answer: IC50 (P. falciparum): 0.002 µM; ED50 (mg/Kg) P. vinckei (P. vinckei; [2]): ip = 34* mg/Kg; ED50 (mg/Kg) P. vinckei (P. vinckei; [3]): po = 62* mg/Kg

Question: With `O=C(OCc1ccccc1)N1CCN=C1CCCCCCCCCCCCC1=NCCN1C(=O)OCc1ccccc1` [Compound 6.5, 1,12-bis[N,N′-(benzyloxycarbonyl)imidazolin-2-yl]dodecane] as the compound, how does the IC50 (P. falciparum) read?
Answer: 12 µM

Question: What about the “ED50 (mg/Kg) P. vinckei” value (P. vinckei; [2]) of the same compound?
Answer: ip < 20* mg/Kg

Question: What about the “ED50 (mg/Kg) P. vinckei” value (P. vinckei; [3]) of the same compound?
Answer: po ≈ 100* mg/Kg

Question: Which IC50 (P. falciparum) does the source give for `O=C(Oc1ccc(F)cc1)N1CCN=C1CCCCCCCCCCCCC1=NCCN1C(=O)Oc1ccc(F)cc1` [Compound 6.8, 1,12-bis[N,N′-(4-fluorophenylyloxycarbonyl)imidazolin-2-yl]dodecane] here?
Answer: 69.5 µM

Question: Which IC50 (P. falciparum) does the source give for `CC(C)(C)OC(=O)N=C(NCCCCCCCCCCCCNC(=NC(=O)OC(C)(C)C)NC(=O)OC(C)(C)C)NC(=O)OC(C)(C)C` [Compound 12.2, 1,12-bis(N,N′-di-tert-butyloxycarbonylguanidino)dodecane] here?
Answer: 1.9 µM

Question: What does the source list for `CC(=N)NCCCCCCCCCCCCNC(C)=N` [Compound 20.0, 1,12-bis(N,N′-acetamidinyl)dodecane]?
Answer: IC50 (P. falciparum): 0.002 µM; ED50 (mg/Kg) P. vinckei (P. vinckei; [2]): ip = 2.3* mg/Kg

Question: Which results are given for `CS(=O)(=O)OCC(=N)NCCCCCCCCCCCCNC(=N)COS(C)(=O)=O` [Compound 20.12, 1,12-bis(N,N′-methylsulfonyloxyacetamidinyl)dodecane]?
Answer: ED50 (mg/Kg) P. vinckei (P. vinckei; ip, 4-day suppression test): ip = 4.7 mg/Kg; ED50 (mg/Kg) P. vinckei (P. vinckei; po, 4-day suppression test): po = 42 mg/Kg

Question: Which IC50 (P. falciparum; Plasmodium falciparum) does the source give for `Cc1noc(=O)n1CCCCCCCCCCCCn1c(C)noc1=O` [Compound 20.14, 1,12-bis[N,N′(3-methyl-1,2,4-oxadiazol-5(4H)-one)-3-yl]dodecane] here?
Answer: 7.1 µM

Question: And the ED50 (P. vinckei; ip, 4-day suppression test)?
Answer: 9 mg/kg

Question: And the ED50 (P. vinckei; po, 4-day suppression test)?
Answer: 62 mg/kg

Question: What does the source list for `C(CCCCCCNC1=NCCC1)CCCCCNC1=NCCC1` [Compound 21.0, 1,12-bis[N,N′-(3,4-dihydro-2H-pyrrol-5-yl)amino]dodecane]?
Answer: C0 ([1]; ip, 15 mg/kg): 24 ng/mL; t1/2 ([1]; ip, 15 mg/kg): approximately 35 hours; C0 ([1]; po, 100 mg/kg): 16 ng/mL; apparent t1/2 ([1]; po, 100 mg/kg): 36 h; IC50 (P. falciparum): 0.0038 µM; ED50 (mg/Kg) P. vinckei (P. vinckei; [2]): ip = 2.8* mg/Kg; ED50 (mg/Kg) P. vinckei (P. vinckei; [3]): po = 85* mg/Kg

Question: For `N=C1CCCN1CCCCCCCCCCCCN1CCCC1=N` [Compound 24.0, 1,12-bis[N,N′-(2-iminopyrrolidinyl)]dodecane], which IC50 (P. falciparum) is on record?
Answer: 0.004 µM
